# Experimental data published in patent publication US7056734B1, “Differentiation of non-insulin producing cells into insulin producing cells by GLP-1 or exendin-4 and uses thereof” (The United States of America as represented by the …, priority 1998, dated 2006).
# Assays:
# [1] = tested on: Wistar rats; test: Intravenous bolus of exendin-4 or GLP-1, plasma insulin in fasted anesthetized rats; type: in vivo, rat; conditions: for time by which insulin levels return to baseline: 0.4 nmol/kg iv bolus; for urine output during the study: iv bolus, not quantitated
# Experimental: Protocols. Wistar rats were fasted overnight. Following anesthesia with 50 mg/kg pentobarbital, a catheter was placed in the femoral artery for blood sampling. A bolus of either exendin-4 or GLP-1 was given into the saphenous vein (iv) over 30 sec to 12 animals, while a bolus of normal saline (NaCl) was given to the other six. The order of the injections was rotated. Blood (taken at −5, 0, 2, 5, 15, 30, 60, 120, and 180 min) was drawn into heparinized tubes containing EDTA and aprotinin for insulin determination (See Example 1). Animals were acclimated to the facility for at least 2 days.
# Assays. Plasma glucose was measured by the glucose oxidase method (Wang et al., 1997). Insulin was measured by RIA as previously described (See Example 1). Hb A1c was assayed using a BIO-RAD (Herculas Calif.) DiaSTAT machine which uses low pressure cation exchange chromatography in conjunction with gradient elution to separate hemoglobin subtypes and variants from hemolyzed blood. The separated hemoglobin fractions were monitored by means of absorption of light at 415 nm.
# Statistical methods. All results are given as mean±SEM. T tests were based on the results of an F test that looked at the equality of variance of the two means. […] For determination of the EC50 the basal plasma insulin levels were subtracted and the remaining activity at each concentration was expressed as a percent of the maximal activity (achieved by an excess of peptide). This was then transformed into a logit format where logit=ln (% activity/[100-% activity]) and was plotted as a function of the log concentration of the compound.
# [2] = tested on: AR42J cells; test: Immunocytochemistry of insulin- and glucagon-positive AR42J cells; type: cell-based, rat
# Experimental: Cell culture. AR42J cells were maintained in Dulbecco's modified Eagle's medium (DMEM) supplemented with 10% fetal calf serum (FBS), 100 IU/ml penicillin, 100 μg/ml streptomycin and 2 mM glutamine. Cells from passage 23–35 were used throughout this study. Cells were routinely plated at a density of about 10^5 cells/ml in 12-well cluster dishes or on coverslips and incubated in a humidified incubator at 37° C. with 95% air and 5% CO2.
# Immunocytochemistry analysis. Cells were cultured on glass coverslips, washed with phosphate buffered saline (PBS) to remove serum, and fixed with 0.5% glutaraldehyde in PBS. Cells were permeabilized with 0.2% Triton X-100 for 5 min and the rest of the procedure was carried out at room temperature in a humidified chamber. Suction was used to remove reagents between each step but drying of specimens was avoided. Sufficient reagent was used to cover each specimen (approximately 1 or 2 drops was usually adequate). The coverslips were incubated in 0.3% H2O2 in PBS for 30 min to quench endogenous peroxidase activity and washed in PBS×3 times, followed by incubation with 2% goat serum in PBS for 30 min to block non-specific binding of IgG. Excess serum was removed by blotting. The specific primary polyclonal antisera (anti-insulin 1:300; anti-glucagon 1:300) were used. Antibody was diluted in PBS containing 1% goat serum. This was applied to the coverslip and incubated at room temperature for 1 h. The coverslips were washed ×3 times in PBS, each time for 5 min, then incubated with biotinylated second antibody for 1 h and washed ×3 times with PBS. Avidin-biotin-peroxidase complex in PBS was applied for 30 min. Immunoperoxidase labeling was performed with a Vectostain ABC kit (Vector Labs, Burlingame, Calif.). After extensive washing in PBS for 4–5 times (each 5 min), the coverslips were incubated in diaminobenzidine tetrahydrochloride (DAB) in PBS, with 0.01% hydrogen peroxide for 3 min. The reaction was stopped by washing the coverslips in PBS and examined under a light microscope. To confirm specific staining, samples incubated with preabsorbed primary antibody were used as negative control, and the insulin producing cell line RIN 1046-38 cells were used as positive control for our experiments. The avidin-biotin-peroxidase (ABC) procedure was performed according to methods known in the art (Hsu et al., 1981).
# [3] = tested on: diabetic mice; test: Preliminary ip and sc injections, duration of blood sugar lowering; type: in vivo, mouse; conditions: for blood sugars 24 hours after ip and sc injections: preliminary experiments
# Experimental: Effects of chronic treatment with exendin-4 in mice. The biological activity of exendin-4, as measured by its ability to lower blood sugar, was much longer than we expected when given ip or subcutaneously to diabetic animals. […] This lead us to design a long-term experiment with exendin-4. At the initiation of the daily ip exendin-4 regimen in the mice fasting blood glucose was 145±51 mg/dl in the non-diabetic mice and 232±38 mg/dl in the diabetic mice. […] Glucose levels dropped to 90±11 mg/dl in the exendin-4-treated animals from 238±51 mg/dl (p<0.002) in the NaCl-treated animals (Table 1). We measured fasting insulin levels in the diabetic animals that received NaCl or exendin-4. They were higher in the animals that received exendin-4 (p<0.002). […] We surmised that the decreased urination in the exendin-4-treated diabetic mice was due to less osmotic diuresis because of lower blood glucose.
# This was possibly due to greater variation in the sc technique and perhaps even loss of the peptide during injections in some cases.
# [4] = tested on: ERK; test: MAP kinase (ERK) activity in AR42J cells; type: cell-based, rat; conditions: 3 days; for ERK (MAP kinase) activity: GLP-1 10 nM, exendin-4 0.1 nM
# Experimental: MAP Kinase Activity. After treatment, 60 mm dishes of 80% confluent cells were lysed at 4° C. in lysis buffer (in mM): 50 TRIS-HCl, PH 8, 150 NaCl, 5 EDTA, 1% NP-40, 0.25% sodium deoxycholate, 1 NaF, 10 sodium pyrophosphate, 0.1 PMSF, 1 sodium orthovanadate, 20 μg/ml aprotinin, and 10 μg/ml leupeptin. The cell lysate was clarified by centrifugation at 16,000×g at 4° C. for 20 min. The clarified cell lysate was immunoprecipitated overnight at 4° C., rotating with 4.5 μg of ERK1-CT antibody and 40 μl of packed protein G+protein A agarose resin (Oncogene Research Product, Cambridge, Mass.). The immune pellet was assayed for MAPK activity using MBP as the substrate. MBP (18.6 μg) was phosphorylated at 20° C. for 10 min in a final volume of 60 μl containing 20 mM Hepes, PH 7.4, 10 mM MgCl2, 1 mM DTT, 20 uM unlabeled ATP and 40 μCi (3,000 Ci/mmol) [^32P]-ATP. The reaction was terminated by the addition of 25 μl of 3× Laemmli sample buffer and heating at 70° C. for 10 min. MAPK activity was assessed by SDS-PAGE and auto-radiography. The autoradiograms were quantified by densitometry.
# [5] = 10 nM GLP-1 or 0.1 nM exendin-4, 3 days
Molecule,time by which insulin levels return to baseline [1] [min],urine output during the study [1],"AR42J cells converted into insulin-positive cells ([2]; 1 nM GLP-1, 3 days) [%]","AR42J cells converted into insulin-positive cells [2, 5] [%]","treated AR42J cells glucagon positive ([2]; 48 h, GLP-1 (10 nM)) [%]","treated AR42J cells insulin-positive ([2]; 48 h, GLP-1 (10 nM)) [%]","treated cells containing glucagon ([2]; 72 h, GLP-1 (10 nM))","cells remaining insulin-positive ([2]; for at least 7 days, GLP-1 (10 nM)) [%]",blood sugars 24 hours after ip and sc injections [3],ERK (MAP kinase) activity [4],maximal insulin response compared with GLP-1 ([1]; 0.4 nmol/kg iv),lowest concentration at which some insulin-containing cells were seen ([2]; AR42J cells),duration of lower blood sugars after an ip dose [3],potency on ERK activation relative to GLP-1 [4]
CC[C@H](C)[C@H](NC(=O)[C@H](Cc1ccccc1)NC(=O)[C@H](CCC(=O)O)NC(=O)[C@H](CCCCN)NC(=O)[C@H](C)NC(=O)[C@H](C)NC(=O)[C@H](CCC(N)=O)NC(=O)CNC(=O)[C@H](CCC(=O)O)NC(=O)[C@H](CC(C)C)NC(=O)[C@H](Cc1ccc(O)cc1)NC(=O)[C@H](CO)NC(=O)[C@H](CO)NC(=O)[C@@H](NC(=O)[C@H](CC(=O)O)NC(=O)[C@H](CO)NC(=O)[C@@H](NC(=O)[C@H](Cc1ccccc1)NC(=O)[C@@H](NC(=O)CNC(=O)[C@H](CCC(=O)O)NC(=O)[C@H](C)NC(=O)[C@@H](N)Cc1c[nH]cn1)[C@@H](C)O)[C@@H](C)O)C(C)C)C(=O)N[C@@H](C)C(=O)N[C@@H](Cc1c[nH]c2ccccc12)C(=O)N[C@@H](CC(C)C)C(=O)N[C@H](C(=O)N[C@@H](CCCCN)C(=O)NCC(=O)N[C@@H](CCCNC(=N)N)C(N)=O)C(C)C [GLP-1],≤ 10,urinated little if any,~10,~25,20,~6,fully half,~25,back to baseline,markedly increased,–,–,–,–
exendin-4,≤ 60,obvious increase in urine output,–,~25,–,–,–,–,lower blood sugars,markedly increased,approximately doubled,10^−11 molar,up to 24 hours,about 100 fold
